Results from US20080262080A1, “Allergy Suppressive Agent” (KYUSHU UNIVERSITY, NATIONAL UNIVERSITY CORPORATION, priority 2004, published 2008).

Test system: high-affinity IgE receptor (FcεRI)
Test: FcεRI expression amount on the cell surface of KU812 cells by flow cytometry
Type: cell-based, human
Conditions: 24 hours
Procedure: By using antihuman FcRI antibody (CRA1), the FcεRI expression amount on the surface of human basophil-like cell line KU812 cells was analyzed by flow cytometry. Cells having been incubated by adding DMSO alone were compared with cells having been incubated by adding chrysin. The ratio of overexpression of FcεRI is indicated in percentage. As a basal medium for incubating cells, use was made of RPMI 1640 (Nissui, Japan), to which 100 U/mL of penicillin (Meiji Pharmaceutical Company, Tokyo, Japan), […] of streptomycin (Meiji Pharmaceutical Company, Tokyo, Japan), 12.5 mM of MaHCO3 (Wako Pure Chemical Industries, Osaka, Japan) and 10 mM of HEPES Wako Pure Chemical Industries) had been added. Fetal bovine serum (FBS) purchased form Bio Source International was added to the basal medium to give a concentration of 5 to 10%. Human basophil-like cell line KU812 employed in this experiment was assigned by Japan Collection of Research Bioresources (JCRB) and subcultured and maintained in RPMI 1640 medium comprising 5 to 10% of FBS at 37° C. in 5% CO2 gas under humidification. KU812 cells were incubated in RPMI 1640 medium, to which chrysin dissolved in DMSO had been added, for 0 to 24 hours. A system wherein the cells were incubated in the medium comprising DMSO alone was used as a control. After incubating, the cells were collected and incubated in 5% FBS-PBS, to which 10 μg/mL of antihuman FcεRI α chain mouse monoclonal antibody CRA-1 (Kyokuto Pharmaceutical) had been added, at 4° C. for 40 to 60 min. As a negative control, 10 μg/mL of mouse control IgG2b antibody (DAKO) was used. Then, the cells were washed with ice-cooled PBS once and incubated in 5% FBS-PBS, to which 10 μg/mL of antimouse IgG2b FITC-labeled antibody (Protos Immunoresearch) had been added, at 4° C. for 40 to 60 min. After incubating, the cells were washed with PBS and then resuspended in PBS. The cell suspension thus obtained was analyzed by flow cytometry. In the flow cytometry analysis, FACS Calibur (Becton Sickinson, Sunnyvale, Calif.) was employed. The secondary antibody reaction and the subsequent procedures were conducted in the dark and the cells were preserved on ice while conducting the analysis. KU812 cells (5×10^5 cells/mL) was incubated in 5% bovine fetal serum comprising RPMI 1640 medium, to which chrysin (0, 1, 5 and 10 μM) and apigenin (purchased from Aldrich Chem. Co., St. Louis, Mo.; 0, 1, 5 and 10 μM) had been added, for 24 hours. After incubating, the FcεRI expression level on the cell surface was measured by flow cytometry (experimental procedure: see [0047]).

O=c1cc(-c2ccc(O)cc2)oc2cc(O)cc(O)c12 [Apigenin]
FcεRI expression suppressive rate (%) (single agent 1 μM): 5.0%
FcεRI expression suppressive rate (%) (single agent 5 μM): 17.1%
FcεRI expression suppressive rate (%) (single agent 10 μM): 36.1%
